# Reference: US20220187282A1, “CARDIOMYOCYTE PROLIFERATION” (The Council of the Queensland Institute of Medical Research, priority 2019, published 2022)
# Read-outs that look alike come from different tables or passages of the source.
# Key:
# Assay type in all cases: biochemical
# [1] = target: kinases (Homo sapiens, UniProt O14936); settings: CASK FRET-Lantha SP; Test Conc(μM) 1
# [2] = target: kinases (Homo sapiens, UniProt O15264); settings: MAPK13 (p38 delta) Z-Lyte SP; Test Conc(μM):ATP Conc(μM) 1:10
# [3] = target: kinases (Homo sapiens, UniProt O43293); settings: DAPK3 (ZIPK) FRET-Z-Lyte SP; Test Conc(μM):ATP Conc(μM) 1:5
# [4] = target: kinases (Homo sapiens, UniProt O60285); settings: NUAK1 (ARK5) FRET-Adapta SP; Test Conc(μM):ATP Conc(μM) 1:25
# [5] = target: kinases (Homo sapiens, UniProt O94768); settings: STK17B (DRAK2) FRET-Lantha SP; Test Conc(μM) 1
# [6] = target: kinases (Homo sapiens, UniProt P08069); settings: IGF1R FRET-Z-Lyte SP; Test Conc(μM):ATP Conc(μM) 1:150
# [7] = target: kinases (Homo sapiens, UniProt P10721); settings: KIT *Mn* FRET-Z-Lyte SP
# [8] = target: kinases (Homo sapiens, UniProt P15056)
# [9] = target: kinases (Homo sapiens, UniProt P15735); settings: PHKG2 FRET-Z-Lyte SP; Test Conc(μM):ATP Conc(μM) 1:10
# [10] = target: kinases (Homo sapiens, UniProt P29320); settings: EPHA3 FRET-Lantha SP; Test Conc(μM) 1
# [11] = target: kinases (Homo sapiens, UniProt P31749); settings: AKT1 (PKB alpha) Z-Lyte SP; Test Conc(μM):ATP Conc(μM) 1:75
# [12] = target: kinases (Homo sapiens, UniProt P33981); settings: TTK FRET-Lantha SP; Test Conc(μM) 1
# [13] = target: kinases (Homo sapiens, UniProt P51813); settings: BMX FRET-Z-Lyte SP; Test Conc(μM):ATP Conc(μM) 1:100
# [14] = target: kinases (Homo sapiens, UniProt P53671); settings: LIMK2 FRET-Lantha SP; Test Conc(μM) 1
# [15] = target: kinases (Homo sapiens, UniProt P78527); settings: DNA-PK FRET-Z-Lyte SP; Test Conc(μM):ATP Conc(μM) 1:25
# [16] = target: kinases (Homo sapiens, UniProt Q00526); settings: CDK3/cyclin E1 FRET-Lantha SP; Test Conc(μM) 1
# [17] = target: kinases (Homo sapiens, UniProt Q02156); settings: PRKCE (PKC epsilon) Z-Lyte SP; Test Conc(μM):ATP Conc(μM) 1:25
# [18] = target: kinases (Homo sapiens, UniProt Q12866); settings: MERTK (cMER) *Mn* Z-Lyte SP; Test Conc(μM):ATP Conc(μM) 1:10
# [19] = target: kinases (Homo sapiens, UniProt Q13557); settings: CAMK2D FRET-Z-Lyte SP; Test Conc(μM):ATP Conc(μM) 1:5
# [20] = target: kinases (Homo sapiens, UniProt Q16644); settings: MAPKAPK3 FRET-Z-Lyte SP; Test Conc(μM):ATP Conc(μM) 1:200
# [21] = target: kinases (Homo sapiens, UniProt Q86SG6); settings: NEK8 FRET-Lantha SP; Test Conc(μM) 1
# [22] = target: kinases (Homo sapiens, UniProt Q86YV6); settings: MYLK4 FRET-Lantha SP; Test Conc(μM) 1
# [23] = target: kinases (Homo sapiens, UniProt Q8IVH8); settings: MAP4K3 (GLK) FRET-Lantha SP; Test Conc(μM) 1
# [24] = target: kinases (Homo sapiens, UniProt Q8N5S9); settings: CAMKK1 (Alpha) FRET-Lantha SP; Test Conc(μM) 1
# [25] = target: kinases (Homo sapiens, UniProt Q8NEV4); settings: MYO3A (MYO3 alpha) Lantha SP; Test Conc(μM) 1
# [26] = target: kinases (Homo sapiens, UniProt Q9P286); settings: PAK7 (KIAA1264) FRET-Z-Lyte SP; Test Conc(μM):ATP Conc(μM) 1:5
# [27] = target: kinases (Homo sapiens, UniProt Q9UEW8); settings: STK39 (STLK3) FRET-Lantha SP; Test Conc(μM) 1
# [28] = target: kinases (Homo sapiens, UniProt Q9UK32); settings: RPS6KA6 (RSK4) FRET-Z-Lyte SP; Test Conc(μM):ATP Conc(μM) 1:25
# [29] = target: kinases (Homo sapiens, UniProt Q9Y463); settings: DYRK1B FRET-Z-Lyte SP; Test Conc(μM):ATP Conc(μM) 1:75
# [30] = bRAF Cascade FRET-Z-Lyte SP, Test Conc(μM):ATP Conc(μM) 1:100
# [31] = bRAF FRET-Lantha SP, Test Conc(μM) 1
# kinases (Homo sapiens, UniProt P15056), sequence (P15056 whole entry): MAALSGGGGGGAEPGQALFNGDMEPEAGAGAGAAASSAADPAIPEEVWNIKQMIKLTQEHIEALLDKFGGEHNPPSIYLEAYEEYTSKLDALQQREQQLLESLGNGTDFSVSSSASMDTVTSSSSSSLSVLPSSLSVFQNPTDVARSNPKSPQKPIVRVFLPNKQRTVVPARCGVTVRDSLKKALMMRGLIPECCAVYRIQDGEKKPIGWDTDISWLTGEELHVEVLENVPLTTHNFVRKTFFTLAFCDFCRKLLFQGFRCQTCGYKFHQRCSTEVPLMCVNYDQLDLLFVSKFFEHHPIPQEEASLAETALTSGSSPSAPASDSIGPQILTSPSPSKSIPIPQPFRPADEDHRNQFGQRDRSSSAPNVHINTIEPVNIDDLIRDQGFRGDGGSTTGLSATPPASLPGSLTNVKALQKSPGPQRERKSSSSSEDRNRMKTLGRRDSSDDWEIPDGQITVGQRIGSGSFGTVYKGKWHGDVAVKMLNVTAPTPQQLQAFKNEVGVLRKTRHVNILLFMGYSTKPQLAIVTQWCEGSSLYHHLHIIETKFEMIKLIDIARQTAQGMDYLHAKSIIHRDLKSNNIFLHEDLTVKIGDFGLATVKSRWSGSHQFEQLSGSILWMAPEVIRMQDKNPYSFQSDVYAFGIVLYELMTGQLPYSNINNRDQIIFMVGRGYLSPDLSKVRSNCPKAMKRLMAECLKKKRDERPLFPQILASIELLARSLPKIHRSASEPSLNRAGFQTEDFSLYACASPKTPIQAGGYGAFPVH
# kinases (Homo sapiens, UniProt O43293), sequence (O43293 whole entry): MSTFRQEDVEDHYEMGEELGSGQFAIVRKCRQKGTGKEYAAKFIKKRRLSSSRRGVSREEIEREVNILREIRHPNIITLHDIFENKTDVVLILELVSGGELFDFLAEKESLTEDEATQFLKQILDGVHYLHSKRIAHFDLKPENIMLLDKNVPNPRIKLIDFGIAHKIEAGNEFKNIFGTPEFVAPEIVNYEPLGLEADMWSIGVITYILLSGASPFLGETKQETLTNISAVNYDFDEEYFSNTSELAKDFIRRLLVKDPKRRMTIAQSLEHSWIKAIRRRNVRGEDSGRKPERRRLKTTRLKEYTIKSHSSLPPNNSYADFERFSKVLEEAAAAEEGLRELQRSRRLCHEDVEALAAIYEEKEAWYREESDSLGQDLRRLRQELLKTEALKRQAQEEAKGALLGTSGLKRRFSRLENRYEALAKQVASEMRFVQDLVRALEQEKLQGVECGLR
# kinases (Homo sapiens, UniProt Q8N5S9), sequence (Q8N5S9 whole entry): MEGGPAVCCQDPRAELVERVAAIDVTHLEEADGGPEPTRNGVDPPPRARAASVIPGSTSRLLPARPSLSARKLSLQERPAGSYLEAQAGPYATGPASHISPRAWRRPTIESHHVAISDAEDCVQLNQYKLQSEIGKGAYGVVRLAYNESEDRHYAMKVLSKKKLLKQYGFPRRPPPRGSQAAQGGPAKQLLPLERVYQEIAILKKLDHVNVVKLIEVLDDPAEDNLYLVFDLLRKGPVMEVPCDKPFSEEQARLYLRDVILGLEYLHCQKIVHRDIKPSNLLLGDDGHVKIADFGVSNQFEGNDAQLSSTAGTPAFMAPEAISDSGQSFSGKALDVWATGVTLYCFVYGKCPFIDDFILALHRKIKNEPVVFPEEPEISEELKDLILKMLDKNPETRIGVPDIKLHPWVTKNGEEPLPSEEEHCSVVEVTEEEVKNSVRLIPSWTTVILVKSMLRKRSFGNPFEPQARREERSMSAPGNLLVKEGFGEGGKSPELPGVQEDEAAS
# kinases (Homo sapiens, UniProt Q86SG6), sequence (Q86SG6 whole entry): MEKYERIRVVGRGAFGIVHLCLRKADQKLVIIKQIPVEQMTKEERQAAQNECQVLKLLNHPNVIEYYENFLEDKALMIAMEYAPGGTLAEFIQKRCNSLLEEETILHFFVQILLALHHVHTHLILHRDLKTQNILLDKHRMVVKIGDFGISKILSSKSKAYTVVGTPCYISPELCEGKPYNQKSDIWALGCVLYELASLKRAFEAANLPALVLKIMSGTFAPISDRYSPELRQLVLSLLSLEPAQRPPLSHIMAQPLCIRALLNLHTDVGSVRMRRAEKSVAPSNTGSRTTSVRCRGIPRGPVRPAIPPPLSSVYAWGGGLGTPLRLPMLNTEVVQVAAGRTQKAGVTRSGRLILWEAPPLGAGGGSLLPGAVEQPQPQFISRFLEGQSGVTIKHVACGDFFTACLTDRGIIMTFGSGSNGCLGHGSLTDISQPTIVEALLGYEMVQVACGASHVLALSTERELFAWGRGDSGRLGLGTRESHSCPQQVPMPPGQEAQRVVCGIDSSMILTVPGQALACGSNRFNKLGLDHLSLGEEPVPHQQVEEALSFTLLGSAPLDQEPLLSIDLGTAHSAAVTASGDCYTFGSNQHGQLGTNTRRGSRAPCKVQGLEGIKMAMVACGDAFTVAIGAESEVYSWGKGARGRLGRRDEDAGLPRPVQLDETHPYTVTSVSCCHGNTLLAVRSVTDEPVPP
# kinases (Homo sapiens, UniProt Q8NEV4), sequence (Q8NEV4 whole entry): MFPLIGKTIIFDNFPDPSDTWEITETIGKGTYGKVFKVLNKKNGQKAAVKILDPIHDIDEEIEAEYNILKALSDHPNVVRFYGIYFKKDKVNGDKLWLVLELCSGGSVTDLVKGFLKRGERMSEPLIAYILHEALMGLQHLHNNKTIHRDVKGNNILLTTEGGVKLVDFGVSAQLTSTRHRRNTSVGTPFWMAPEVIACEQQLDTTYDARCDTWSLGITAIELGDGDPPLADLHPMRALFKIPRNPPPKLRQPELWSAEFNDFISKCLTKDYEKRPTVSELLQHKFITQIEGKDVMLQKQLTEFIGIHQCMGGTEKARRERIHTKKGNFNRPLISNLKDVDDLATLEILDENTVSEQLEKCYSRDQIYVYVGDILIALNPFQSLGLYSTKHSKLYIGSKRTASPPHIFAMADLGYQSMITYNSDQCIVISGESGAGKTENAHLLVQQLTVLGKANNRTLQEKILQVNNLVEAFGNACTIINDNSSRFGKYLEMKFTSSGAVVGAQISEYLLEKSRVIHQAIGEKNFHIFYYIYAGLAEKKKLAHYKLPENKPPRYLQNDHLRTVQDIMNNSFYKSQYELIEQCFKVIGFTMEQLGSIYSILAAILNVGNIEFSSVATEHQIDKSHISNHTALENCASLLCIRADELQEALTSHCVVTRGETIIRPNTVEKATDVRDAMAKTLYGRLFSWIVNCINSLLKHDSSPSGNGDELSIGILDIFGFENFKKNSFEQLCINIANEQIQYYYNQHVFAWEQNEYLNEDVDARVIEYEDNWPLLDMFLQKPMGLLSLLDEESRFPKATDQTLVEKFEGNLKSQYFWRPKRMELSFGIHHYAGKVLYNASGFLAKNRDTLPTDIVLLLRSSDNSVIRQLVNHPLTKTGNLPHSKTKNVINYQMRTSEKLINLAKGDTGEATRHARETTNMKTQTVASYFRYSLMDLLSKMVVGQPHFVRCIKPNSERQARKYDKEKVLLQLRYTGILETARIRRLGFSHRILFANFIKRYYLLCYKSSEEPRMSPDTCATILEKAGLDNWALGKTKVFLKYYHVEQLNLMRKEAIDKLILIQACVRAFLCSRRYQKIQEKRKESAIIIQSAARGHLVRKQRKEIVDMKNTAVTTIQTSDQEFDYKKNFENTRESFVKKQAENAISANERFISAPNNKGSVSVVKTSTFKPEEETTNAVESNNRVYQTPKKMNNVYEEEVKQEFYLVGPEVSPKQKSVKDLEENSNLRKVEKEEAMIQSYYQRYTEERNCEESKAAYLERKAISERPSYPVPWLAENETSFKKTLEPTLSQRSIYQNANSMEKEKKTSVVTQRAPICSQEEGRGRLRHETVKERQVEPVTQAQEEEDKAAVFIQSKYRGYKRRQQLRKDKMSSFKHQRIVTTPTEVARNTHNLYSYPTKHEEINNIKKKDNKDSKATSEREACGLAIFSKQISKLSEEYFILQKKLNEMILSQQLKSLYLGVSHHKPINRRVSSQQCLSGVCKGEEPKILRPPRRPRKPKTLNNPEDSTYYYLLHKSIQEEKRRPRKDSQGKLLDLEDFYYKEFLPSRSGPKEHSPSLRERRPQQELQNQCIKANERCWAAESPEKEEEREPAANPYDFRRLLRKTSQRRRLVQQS
# kinases (Homo sapiens, UniProt P29320), sequence (P29320 21-983): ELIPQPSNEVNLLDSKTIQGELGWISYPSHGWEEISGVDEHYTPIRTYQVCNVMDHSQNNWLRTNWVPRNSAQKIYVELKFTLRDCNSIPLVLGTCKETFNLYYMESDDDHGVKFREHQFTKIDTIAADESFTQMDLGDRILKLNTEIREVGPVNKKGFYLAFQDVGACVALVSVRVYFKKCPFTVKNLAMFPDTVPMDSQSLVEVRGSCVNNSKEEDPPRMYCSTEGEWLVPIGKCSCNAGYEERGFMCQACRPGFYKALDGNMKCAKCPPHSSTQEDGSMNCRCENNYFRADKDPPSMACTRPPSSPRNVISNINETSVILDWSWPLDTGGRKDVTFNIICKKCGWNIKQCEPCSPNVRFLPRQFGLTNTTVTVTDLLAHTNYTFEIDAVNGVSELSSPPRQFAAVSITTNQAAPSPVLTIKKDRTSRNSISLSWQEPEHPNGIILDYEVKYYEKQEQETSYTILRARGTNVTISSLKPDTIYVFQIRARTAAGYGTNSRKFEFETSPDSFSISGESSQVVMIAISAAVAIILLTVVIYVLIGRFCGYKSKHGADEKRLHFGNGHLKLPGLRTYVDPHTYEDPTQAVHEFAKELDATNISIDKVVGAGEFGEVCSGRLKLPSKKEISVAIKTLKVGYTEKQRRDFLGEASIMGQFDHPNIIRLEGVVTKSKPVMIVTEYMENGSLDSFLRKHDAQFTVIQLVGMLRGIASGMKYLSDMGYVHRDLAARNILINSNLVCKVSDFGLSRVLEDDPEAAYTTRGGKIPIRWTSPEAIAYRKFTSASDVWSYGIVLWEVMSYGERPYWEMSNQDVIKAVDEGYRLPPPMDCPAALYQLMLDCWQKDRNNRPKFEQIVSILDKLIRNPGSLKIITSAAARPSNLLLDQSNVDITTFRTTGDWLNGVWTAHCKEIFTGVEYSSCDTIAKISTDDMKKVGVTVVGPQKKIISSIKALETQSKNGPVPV
smiles,measurement,setting,value
Cc1ccc(NC(=O)c2ccnc(N3CCOCC3)c2)cc1Nc1ccnc(N2CC(C)OC(C)C2)n1 (stereo not drawn) [compound 3],Mean Inhib (%),[1],16.8%
same,Mean Inhib (%),[2],4.7%
same,Mean Inhib (%),[3],3.3%
same,Mean Inhib (%),[4],−5.6%
same,Mean Inhib (%),[5],4.7%
same,Mean Inhib (%),[6],11.6%
same,Mean Inhib (%),[7]; Test Conc(μM):ATP Conc(μM) 1:300,0.0%
same,Mean Inhib (%),[8]; [30],10.3%
same,Mean Inhib (%),[8]; [31],66.8%
same,Mean Inhib (%),[9],−2.1%
same,Mean Inhib (%),[10],4.8%
same,Mean Inhib (%),[11],5.2%
same,Mean Inhib (%),[12],6.5%
same,Mean Inhib (%),[13],7.2%
same,Mean Inhib (%),[14],0.5%
same,Mean Inhib (%),[15],13.7%
same,Mean Inhib (%),[16],6.0%
same,Mean Inhib (%),[17],12.2%
same,Mean Inhib (%),[18],13.1%
same,Mean Inhib (%),[19],8.1%
same,Mean Inhib (%),[20],1.7%
same,Mean Inhib (%),[21],−9.5%
same,Mean Inhib (%),[22],5.1%
same,Mean Inhib (%),[23],7.7%
same,Mean Inhib (%),[24],−7.3%
same,Mean Inhib (%),[25],10.8%
same,Mean Inhib (%),[26],3.9%
same,Mean Inhib (%),[27],6.0%
same,Mean Inhib (%),[28],−9.0%
same,Mean Inhib (%),[29],3.0%
Cc1cc(Oc2ccnc(Nc3ccc(S(N)(=O)=O)cc3)c2)c(-c2ccccn2)nc1C [compound 65],Mean Inhib (%),[1],12.1%
same,Mean Inhib (%),[2],3.7%
same,Mean Inhib (%),[3],−11.8%
same,Mean Inhib (%),[4],−3.5%
same,Mean Inhib (%),[5],2.0%
same,Mean Inhib (%),[6],6.5%
same,Mean Inhib (%),[7]; Test Conc(μM):ATP Conc(μM) 0.25,8.8%
same,Mean Inhib (%),[8]; [30],16.7%
same,Mean Inhib (%),[8]; [31],10.4%
same,Mean Inhib (%),[9],4.0%
same,Mean Inhib (%),[10],27.9%
same,Mean Inhib (%),[11],−1.3%
same,Mean Inhib (%),[12],−2.0%
same,Mean Inhib (%),[13],18.7%
same,Mean Inhib (%),[14],22.2%
same,Mean Inhib (%),[15],13.9%
same,Mean Inhib (%),[16],9.6%
same,Mean Inhib (%),[17],10.0%
same,Mean Inhib (%),[18],7.3%
same,Mean Inhib (%),[19],0.3%
same,Mean Inhib (%),[20],−1.3%
same,Mean Inhib (%),[21],−7.5%
same,Mean Inhib (%),[22],14.6%
same,Mean Inhib (%),[23],14.0%
same,Mean Inhib (%),[24],−6.4%
same,Mean Inhib (%),[25],1.6%
same,Mean Inhib (%),[26],4.7%
same,Mean Inhib (%),[27],5.1%
same,Mean Inhib (%),[28],−0.7%
same,Mean Inhib (%),[29],−5.0%
